Data reported in article PMC11598835 (Viruses, 2024).
In brackets after ≈: the same amount, converted by molar mass. Read-outs that look alike come from different tables or passages of the source.

Assays:
[1] = In vivo plasma pharmacokinetics in rats; conditions: male, Wistar, ip, rat
[2] = tested on: SARS-CoV-2 B.1 lineage isolate
[3] = molecular target: Recombinant SARS-CoV-2 Mpro (Severe acute respiratory syndrome coronavirus 2, UniProt P0DTD1); assay: Protease inhibition FRET assay, Mpro; assay type: biochemical; conditions: Mpro 1.5 μM, substrate 50 μM
[4] = molecular target: Recombinant SARS-CoV-2 PLpro (Severe acute respiratory syndrome coronavirus 2, UniProt P0DTD1); assay: biochemical; conditions: FRET, PLpro 1 μM
[5] = physchem; assay type: physicochemical; conditions: water, thermodynamic from solid
[6] = in vitro; assay type: cell-based; conditions: human
[7] = tested on: SARS-CoV-2 B.1 lineage isolate; assay: microbe, parasite or virus in culture; conditions: Severe acute respiratory syndrome coronavirus 2, Calu-3, 24 h
[8] = cited from earlier work
[9] = tested on: SARS-CoV-2; conditions: read-out: EC50, anti-SARS-CoV-2; cited from earlier work
[10] = tested on: HIV-1; design: method as in ref 15 = [15]; conditions: read-out: EC50, antiviral activity for HIV-1; cited from earlier work
[11] = read-out: Inhibition of Viral Replication in Calu-3 (%)
[12] = read-out: difference in SARS-CoV-2 inhibition compared to compound 4a

Structure (SMILES) | SI (CC50/EC50) [2] | selectivity indexes (SI), conclusions [2] [µM] | IC50 [3] [µM] | IC50 [4] [µM] | CC50 at 72 h [6] [µM] | inhibition at 10 µM [7, 11] [%] | also measured
O=C1c2ccccc2C(=O)c2c1[nH]c1ccccc21 [4a, 5H-Benzo[b]carbazole-6,11-dione] | >266.7 | > 50 | 0.11 ± 0.05 | 153 ± 0.1 | > 200 | 94.6 | CL/F ([1]; plasma, 5 mg/kg i.p.): 31.2 mL/min/kg; Vd/F ([1]; plasma, 5 mg/kg i.p., read-out: Vz/F): 98 ± 186 L/kg; half-life ([1]; plasma, 5 mg/kg i.p., read-out: t1/2,z (converted)): 37 ± 60 h; Cmax ([1]; in vivo, 5 mg/kg): 770 ± 120 nM; Tmax ([1]; in vivo, 5 mg/kg): 0.333 h; concentration at 24 h ([1]; in vivo, 5 mg/kg): 120 ± 40 nM; solubility [5]: 1.43 µg/mL (≈ 5.78 µM)
COc1ccc2[nH]c3c(c2c1)C(=O)c1ccccc1C3=O [4b, 2-Methoxy-5H-benzo[b]carbazole-6,11-dione] | >119.0 | > 50 | 0.37 ± 0.05 | 72.1 ± 0.1 | > 200 | 96.2 | difference in SARS-CoV-2 inhibition compared to compound 4a ([2]; 10 µM): no significant change
Cc1ccc2[nH]c3c(c2c1)C(=O)c1ccccc1C3=O [4c, 2-Methyl-5H-benzo[b]carbazole-6,11-dione] |  |  |  |  |  |  | Inhibition of Viral Replication in Calu-3 (%) ([2]; 10 µM): ineffective
COc1cccc2c3c([nH]c12)C(=O)c1ccccc1C3=O [4d, 4-Methoxy-5H-benzo[b]carbazole-6,11-dione] | >141.8 | > 50 | > 200 | 190.8 ± 0.1 | > 200 | 86.5 | inhibition at 10 µM [7, 12]: 8.1%
COc1cc(OC)c2[nH]c3c(c2c1)C(=O)c1ccccc1C3=O [4e, 2,4-Dimethoxy-5H-benzo[b]carbazole-6,11-dione] |  |  |  |  |  | 47.1 | inhibition at 10 µM [7, 12]: 47.4%
CCOC(=O)c1ccc2[nH]c3c(c2c1)C(=O)c1ccccc1C3=O [4f, Ethyl 6,11-dioxo-6,11-dihydro-5H-benzo[b]carbazole-2-carboxylate] |  |  |  |  |  | 64 | Inhibition of Viral Replication in Calu-3 (%) ([2]; 10 µM): 64%
O=C1c2ccccc2C(=O)c2c1[nH]c1ccc(F)cc21 [4g, 2-Fluoro-5H-benzo[b]carbazole-6,11-dione] |  |  |  |  |  | 69.4 | Inhibition of Viral Replication in Calu-3 (%) ([2]; 10 µM): 69%
O=C1c2ccccc2C(=O)c2c1[nH]c1c2ccc2ccccc21 [4i, 7H-Dibenzo[a,h]carbazole-7,12(13H)-dione] | >53.7 | > 50 | > 200 | 148.7 ± 0.6 | > 200 | 85.9 | EC50 [2]: 3.73 ± 0.6 µM; viability at 72 h, 100 µM [6]: 68%; EC50 [7]: < 4 µM
COC(=O)N[C@H](C(=O)N[C@@H](Cc1ccccc1)[C@@H](O)CN(Cc1ccc(-c2ccccn2)cc1)NC(=O)[C@@H](NC(=O)OC)C(C)(C)C)C(C)(C)C [Atazanavir] |  |  |  |  |  |  | free fraction, experimental data [8]: 14%
CC(C)C(=O)OC[C@H]1O[C@@H](n2ccc(NO)nc2=O)[C@H](O)[C@@H]1O [Molnupiravir] |  |  |  |  |  |  | EC50 [9]: 1.96 µM
CC(C)(C)[C@H](NC(=O)C(F)(F)F)C(=O)N1C[C@H]2[C@@H]([C@H]1C(=O)N[C@H](C#N)C[C@@H]1CCNC1=O)C2(C)C [Nirmatrelvir] |  |  |  |  |  |  | EC50 [9]: 0.1 µM
COc1cc2[nH]c3ccccc3c2cc1C=O [O-Methylmukonal] |  |  |  |  |  |  | EC50 [10]: 12 µM
CCC(CC)COC(=O)[C@H](C)N[P@](=O)(OC[C@H]1O[C@@](C#N)(c2ccc3c(N)ncnn23)[C@H](O)[C@@H]1O)Oc1ccccc1 [Remdesivir] |  |  |  |  |  |  | EC50 [9]: 2.49 µM
